According to US20070231828A1, “Methods of predicting behavior of cancers” (Johns Hopkins University, priority 2003, published 2007):
Entries after “also recorded” stand apart in the source; their conditions may differ. Read-outs that look alike come from different tables or passages of the source.

How the values were obtained:
22RV1-GLI cells = experiment: In vitro Matrigel invasion assay; assay type: cell-based, human
Description: (§1) Cells reaching the lower chamber were counted according to the manufacturer's protocol. Results were normalized to viable cell mass assayed as described above.

22RV1 cells = experiment: In vitro Matrigel invasion assay; assay type: cell-based, human
Description: as §1

AT6.3 cells [1] = experiment: Quantitative RT-PCR of transcripts; assay type: cell-based, rat
Description: (§2) Amplification of Hh pathway components was normalized in qRT-PCR experiments to that of endogenous phosphoglycerate kinase in each sample. Oligonucleotide primers used in quantitative reeal-time and conventional amplification of reverse transcribed mRNA (RT-PCR) are shown in Table 4.

[2] = test system: human prostate cancer cell lines; experiment: Quantitative RT-PCR of transcripts; assay type: cell-based
Description: as §2

[3] = test system: AT6.3 subcutaneous tumors
AT6.3 cells [4] = experiment: In vitro Matrigel invasion assay; assay type: cell-based, rat; conditions: 3 μM pre-treatment 24 hours, normalized to viable cell mass
Description: as §1

AT2.1-GLI cells = experiment: In vitro Matrigel invasion assay; assay type: cell-based, rat; conditions: 3 μM pre-treatment 24 hours
Description: as §1

prostate epithelium = experiment: Prostate regeneration in castrated mice; assay type: in vivo, C57B16/J mice; conditions: castrates
Description: Prostates were collected, weighed, and processed for histology.

[5] = test system: AT2.1 subcutaneous tumors; experiment: Dunning rat prostate carcinoma xenografts in athymic mice; assay type: in vivo; conditions: s.c.
PC3 xenograft tumors = conditions: 50 mg/kg daily s.c.
Method: (§3) CWR22RV1 (n=14) and PC3tumor xenografts (n=20) were grown by injecting 0.1 ml of Hanks Balanced Salt Solution and Matrigel (1:1) (Beckton Dickinson, Franklin Lakes, N.J.) containing 2.5×10^6 cells subcutaneously at each of two locations (right anterior and posterior flank) per athymic mouse. […] Animals were euthanized and tumors harvested for Ki-67 staining. […] Mice were observed daily for distress and experiments were carried out according to approved institutional protocols. Individual tumor volumes were plotted and regression curves were generated using analysis software to determine individual tumor growth rates.

22RV1 xenograft tumors = conditions: 50 mg/kg daily s.c.
Method: as §3

CC1=C2C[C@H]3[C@@H](CC=C4C[C@@H](O)CC[C@@]43C)[C@@H]2CC[C@]12O[C@@H]1C[C@H](C)CN[C@H]1[C@H]2C [cyclopamine]
invasiveness (22RV1-GLI cells): not affected | invasiveness (22RV1 cells): blocked | Snail expression (AT6.3 cells [1]; AT6.3 cells): suppressed | expression of E-cadherin transcripts (AT6.3 cells [1]; rat metastasis-derived prostate cancer cell line): increased expression | expression of transcripts encoding c-myc [2]: reduced expression | expression of transcripts encoding cyclin D1 [2]: reduced expression | transcription of the gene encoding Nestin [2]: suppressed transcription | expression of E-cadherin transcripts ([2]; human metastasis-derived prostate cancer cell lines): increased expression | expression of Snail transcripts ([2]; human prostate cancer cell lines): decreased expression | expression of the metastasis suppressor Ndrgl ([2]; human prostate cancer cells): increased expression | Growth rate (% tumor volume/day) ([3]; i.p. 10 mg/kg): 9.2 ± 2.4 % tumor volume/day | Median Survival ([3]; i.p. 10 mg/kg/day): 19 days | metastasis ([3]; i.p. 10 mg/kg/day): inhibited metastasis | time by which all animals were dead ([3]; i.p. 10 mg/kg/day): ≤ 26 days | Growth rate (% tumor volume/day) ([3]; i.p. 50 mg/kg): 4.9 ± 1.0 % tumor volume/day | Median Survival ([3]; i.p. 50 mg/kg): No death | metastasis ([3]; i.p. 50 mg/kg/day): blocked metastasis | death ([3]; i.p. 50 mg/kg/day, 50 day treatment period): prevented death | Median Survival ([3]; s.c. 50 mg/kg): No tumors | reduction of invasiveness (AT6.3 cells [4]): approximately nine-fold | invasiveness (AT2.1-GLI cells): did not reduce the invasiveness | prostate regeneration (prostate epithelium; DHT plus cyclopamine 50 mg/kg/day s.c. for 10 days): abolished prostate regeneration; also recorded: completely blocked prostate regeneration | Median Survival [5]: No tumors | time to complete regression of the tumors (PC3 xenograft tumors): 20 to 24 days | time to complete regression of the tumors (22RV1 xenograft tumors): 20 to 24 days

C[C@]12CCC(=O)C[C@@H]1CC[C@@H]1[C@@H]2CC[C@]2(C)[C@@H](O)CC[C@@H]12 [dihydrotestosterone]
prostate regeneration (prostate epithelium; 50 mg/kg/d for ten days after seven days of androgen withdrawal): re-growth of prostate of nearly normal size
